Data reported in patent US20230028441A1, “NOVEL HETEROARYL-TRIAZOLE COMPOUNDS AS PESTICIDES” (Bayer Aktiengesellschaft, priority 2019, published 2023).

Tests used:
Assay type in all cases: in vivo
[1] = tested on: cattle tick larvae (Rhipicephalus microplus), strain Parkhurst, resistant against synthetic pyrethroids; assay: Rhipicephalus (Boophilus) microplus in-vitro contact test, larval cattle tick; conditions: 5 μg/cm^2 (=500 g/ha), after 48 hours, read-out: efficacy (larvae dead or moribund)
Procedure, shortened: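 Efficacy, 100% meaning all larvae dead or moribund, was judged at 48 h from loss of negative geotactic climbing. Larvae of the Parkhurst strain, 20–50 per tube, were exposed at 27° C and 85% humidity to acetone-coated tube surfaces; 900 ppm corresponded to 5 μg/cm^2.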

[2] = tested on: adult engorged female ticks (Rhipicephalus microplus); assay: Rhipicephalus (Boophilus) microplus injection test; conditions: 168 h, egg deposition after 7 days, read-out: efficacy (infertile eggs); for pest or weed control at 0.004 mg: 4 μg/animal; for pest or weed control at 0.02 mg: 20 μg/animal
Procedure, shortened: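 Efficacy is the share of infertile eggs: 100% means none are fertile, 0% means all are fertile. Egg deposition was checked 7 days after injecting 1 μL of DMSO-diluted compound into the abdomen of five engorged female R. microplus, with doubtful eggs kept about 42 days to hatching. The stock was 10 mg in 0.5 mL DMSO.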

[3] = tested on: adult cat fleas (Ctenocephalides felis); assay: Ctenocephalides felis in-vitro contact test, adult cat flea; conditions: 5 μg/cm^2 (=500 g/ha), after 48 hours, read-out: efficacy (fleas dead or moribund)
Procedure, shortened: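 Efficacy (%) counts fleas that are dead or moribund, meaning unable to escape heat (45-50 °C, ≤5 min) by climbing. Scoring was done 48 h after 5-10 adults were placed at room temperature in glass tubes. The tubes carried a dried acetone film of compound, 5 μg/cm^2 at 900 ppm.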

[4] = tested on: adult unfed cat fleas (Ctenocephalides felis); assay: Ctenocephalides felis oral test; conditions: 48 h, 100 ppm in cattle blood, after 2 days
Procedure, shortened: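 Percent flea mortality recorded at 2 days. Compound was dissolved in dimethyl sulfoxide and diluted into cattle blood, which ~20 unfed adult cat fleas ingested through parafilm from a 37°C-heated chamber, their own chamber kept at room temperature.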

[5] = tested on: southern root-knot nematode (Meloidogyne incognita); assay: Meloidogyne incognita test; conditions: 336 h, after 14 days, read-out: nematicidal activity (gall formation)
Procedure: Solvent: 125.0 parts by weight of acetone
To produce a suitable preparation of active compound, 1 part by weight of active compound is mixed with the stated amount of solvent, and the concentrate is diluted with water to the desired concentration.
Vessels are filled with sand, a solution of the active ingredient, a suspension containing eggs and larvae of the southern root-knot nematode (Meloidogyne incognita) and salad seeds. The salad seeds germinate and the seedlings grow. Galls develop in the roots.
After 14 days the nematicidal activity is determined on the basis of the percentage of gall formation. 100% means no galls were found and 0% means the number of galls found on the roots of the treated plants was equal to that in untreated control plants.

[6] = tested on: green peach aphid (Myzus persicae); assay: Myzus persicae oral test; conditions: 120 h
Procedure, shortened: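 Five-day oral feeding assay measuring percent mortality of a mixed aphid population that draws compound-containing sugared IPL41 medium through sealing parafilm; the test preparation derives from 1 part compound per 100 parts acetone, diluted with water.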

[7] = tested on: green peach aphid (Myzus persicae); assay: Myzus persicae spray test; conditions: foliar, 120 h, 100 g/ha, after 5 days, Chinese cabbage leaf disks
Procedure, shortened: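 Chinese cabbage leaf disks carrying all instars of Myzus persicae were sprayed with compound. The formulation was acetone/dimethylformamide diluted in water with 1000 ppm alkylarylpolyglycol ether emulsifier. Percent mortality was scored after 5 days, with 100% meaning all aphids killed.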

[8] = tested on: larvae of the southern green stink bug (Nezara viridula); assay: Nezara viridula spray test; conditions: in Hordeum vulgare, 96 h
Procedure, shortened: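 Percent mortality of southern green stink bug larvae read 4 days after spraying infested Hordeum vulgare. Test solutions: compound in acetone plus dimethylformamide, diluted with emulsifier-containing water (1000 ppm alkylarylpolyglycol ether).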

[9] = tested on: fall armyworm larvae (Spodoptera frugiperda); assay: Spodoptera frugiperda spray test (maize leaf sections); conditions: 168 h
Procedure, shortened: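 Percent kill of Spodoptera frugiperda larvae was recorded 7 days after infesting dried, treated maize leaf sections. Spray solutions were made from an acetone/DMF compound preparation diluted with 1000 ppm emulsifier-containing water.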

[10] = tested on: larvae of the banded cucumber beetle (Diabrotica balteata); assay: Diabrotica balteata spray test; conditions: 168 h, after 7 days, wheat seeds, read-out: efficacy (seedlings grown up); for pest or weed control at 160 µg/disc, 500 g/ha: 500 g/ha (=160 μg/well); for pest or weed control at 32 µg/disc, 100 g/ha: 100 g/ha (=32 μg/well)
Procedure, shortened: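 Efficacy (%) read at day 7: 100% means seedlings grew like untreated, uninfested controls; 0% means no seedlings grew. Wheat seeds germinated 1 day on agar, sprayed with emulsified compound solution (1000 ppm emulsifier in water), then each well infested with 10-20 larvae.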

[11] = tested on: adult brown dog ticks (Rhipicephalus sanguineus); assay: Rhipicephalus sanguineus in-vitro contact test with adult brown dog ticks; conditions: after 48 hours, read-out: efficacy (ticks dead or moribund); for pest or weed control at 1 µg/cm2, 100 g/ha: 1 μg/cm^2 (=100 g/ha); for pest or weed control at 5 µg/cm2, 500 g/ha: 5 μg/cm^2 (=500 g/ha)
Procedure, shortened: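 Efficacy is the percentage of adult ticks dead or moribund, meaning immotile or uncoordinated and unable to escape 45-50° C. heat within 5 min. Read 48 h after 5-10 ticks were enclosed at room temperature in acetone-coated glass tubes. Dose 5 μg/cm^2, from a 900 ppm coating solution.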

[12] = tested on: caterpillars of the fall army worm (Spodoptera frugiperda); assay: Spodoptera frugiperda spray test (cotton leaves); conditions: 168 h
Procedure, shortened: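 Cotton leaves sprayed with compound in water/DMF with 1000 ppm alkylaryl polyglycol ether emulsifier, ammonium salt and/or penetration enhancer at 1000 ppm added if necessary, then infested with fall armyworm caterpillars. Mortality in % scored after 7 days; 100% means all caterpillars killed.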

[13] = tested on: brown planthopper (Nilaparvata lugens); assay: Nilaparvata lugens spray test; conditions: in Oryza sativa, 96 h
Procedure, shortened: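 Rice plants (Oryza sativa) sprayed with compound in acetone/DMF diluted in water containing 1000 ppm alkylarylpolyglycol ether emulsifier, then infested with planthoppers. Mortality % scored after 4 days (100% = all killed, 0% = none killed).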

Row | SMILES | pest or weed control at 5 µg/cm2 [1] | pest or weed control at 0.004 mg [2] | pest or weed control at 0.02 mg [2] | pest or weed control at 5 µg/cm2 [3] | mortality at 100 ppm [4] | pest or weed control at 20 ppm [5] | mortality at 4 ppm [6] | mortality at 100 g/ha [7] | mortality at 100 g/ha [8] | mortality at 100 g/ha [9] | pest or weed control at 160 µg/disc, 500 g/ha [10] | mortality at 500 g/ha [8] | pest or weed control at 1 µg/cm2, 100 g/ha [11] | pest or weed control at 5 µg/cm2, 500 g/ha [11] | pest or weed control at 32 µg/disc, 100 g/ha [10] | mortality at 20 ppm [12] | mortality at 500 g/ha [9] | mortality at 500 g/ha [13] | mortality at 100 g/ha [13]
1 | CC(NC(=O)c1cc(Cl)cc(C(F)(F)F)c1)c1nc(C(=O)NC2CC2)nn1-c1ncccn1 (single isomer, unassigned) [I-076, 5-[1-[[3-chloro-5-(trifluoromethyl)benzoyl]amino]ethyl]-N-cyclopropyl-1-pyrimidin-2-yl-1,2,4-triazole-3-carboxamide] | 90% | 100% | 100% | 100% | 100% | 90% | 100% | 90% | 100% | 100% |  |  |  |  |  |  |  |  | 
2 | CC(NC(=O)c1cc(Cl)cc(S(C)(=O)=O)c1)c1nc([S+]([O-])CC(F)(F)F)nn1-c1ccc(Cl)cn1 (centres unmarked) [I-066] |  | 100% | 100% |  | 100% | 90% |  |  |  |  |  |  |  |  |  |  |  |  | 
3 | CC(NC(=O)c1cc(Cl)cc(C(F)(F)F)c1)c1nc(-c2ncccn2)nn1-c1ncccn1 (centres unmarked) [I-055] |  |  | 100% |  | 100% | 90% |  |  | 100% |  | 100% | 100% |  |  |  |  |  |  | 
4 | CNc1nc([C@H](C)NC(=O)c2cc(OC(F)(F)F)cc(C3CC3)c2)n(-c2ncccn2)n1 [I-132] | 100% |  |  | 100% |  | 90% |  | 90% |  | 100% |  | 100% | 100% | 100% | 100% | 100% |  |  | 
5 | C[C@H](NC(=O)c1cc(Br)cc(Br)c1)c1nc(N2CCOCC2)nn1-c1ncccn1 [I-144] | 100% |  |  | 90% |  | 90% |  |  |  |  |  |  |  |  | 100% |  |  |  | 
6 | CC(NC(=O)c1cc(Cl)cc(OC(F)(F)F)c1)c1nc(-c2ncccn2)nn1-c1ncccn1 (centres unmarked) [I-051] |  | 100% | 100% |  | 100% | 100% | 100% |  | 100% |  | 100% | 100% |  |  |  |  | 100% |  | 
7 | CC(NC(=O)c1cc(Cl)cc(Cl)c1)c1nc(-c2ncccn2)nn1-c1ncccn1 (centres unmarked) [I-054] |  |  | 100% |  | 100% | 90% | 90% |  |  |  |  |  |  |  |  |  |  |  | 
8 | CC(NC(=O)c1cc(Cl)cc(C(F)(F)F)c1)c1nc(C(=O)NC2CC2)nn1-c1ccc(C#N)cn1 (centres unmarked) [I-078] | 90% | 100% | 100% |  | 100% | 90% | 90% |  |  | 100% |  |  |  |  | 100% |  |  |  | 
9 | CNc1nc([C@H](C)NC(=O)c2cc(Br)cc(OC(F)(F)F)c2)n(-c2ncccn2)n1 [I-130] | 100% |  |  | 100% |  | 90% |  | 100% |  | 100% |  | 100% | 100% | 100% | 100% | 100% |  | 90% | 
10 | C=CC(=O)Nc1nc(C(C)NC(=O)c2cc(Cl)cc(C(F)(F)F)c2)n(-c2ccc(Cl)cn2)n1 (centres unmarked) [I-123] | 90% |  |  | 100% |  | 90% |  |  |  | 100% |  | 100% |  |  | 100% |  |  |  | 
11 | C[C@H](NC(=O)c1cc(C(F)(F)F)cc(C(F)(F)F)c1)c1nc(N2CCOCC2)nn1-c1ncccn1 [I-145, N-[(1S)-1-(5-morpholino-2-pyrimidin-2-yl-1,2,4-triazol-3-yl)ethyl]-3,5-bis(trifluoromethyl)benzamide] | 100% |  |  | 80% |  | 100% |  |  |  | 100% |  | 100% |  |  | 100% |  |  |  | 
12 | CNC(=O)c1nc(C(C)NC(=O)c2cc(Cl)cc(C(F)(F)F)c2)n(-c2ncccn2)n1 (centres unmarked) [I-077] |  | 100% | 100% | 90% | 100% | 90% | 100% | 90% | 100% |  |  |  |  |  |  |  |  |  | 90%
13 | C[C@H](NC(=O)c1cc(OC(F)(F)F)cc(C2CC2)c1)c1nc(N2CCOCC2)nn1-c1ncccn1 [I-146] | 90% |  |  |  |  | 100% |  |  |  | 100% |  | 100% |  |  | 100% |  |  |  | 
